ChEMBL document CHEMBL3885861, “Open TG-GATES”

Species on record: Rattus norvegicus
Assay: Open TG-GATES - Regimen: Single
Assay type: toxicity, organism-based, Sprague-Dawley
Set-up: regimen Single, gender Male, age 6 weeks
Details: in vivo, po, 0 mg/kg, route gavage, dose level Control; for APTT / Bas / Eos / Fbg / Hb / Ht / Lym / MCH / MCHC / MCV / Mono / Neu / PT / Plat / RBC / Ret / WBC: tissue Blood; for KIDNEY_L / KIDNEY_R / KIDNEY_TOTAL: tissue Kidney; for LIVER: tissue Liver; for A/G / ALP / ALT / AST / BUN / CRE / Ca / Cl / DBIL / GLC / IP / K / LDH / Na / PL / RALB / TBIL / TC / TG / TP / gamma-GTP: tissue Plasma

What does the source list for `CCC1(c2ccccc2)C(=O)NC(=O)NC1=O` [PHENOBARBITAL]?
TERMINAL_BW (3 h): 221.7 g; APTT (3 h): 19.3 s; Bas (3 h): 0.4%; Eos (3 h): 1%; Fbg (3 h): 219.2 mg/dL; Hb (3 h): 13.6 g/dL; Ht (3 h): 37.5%; Lym (3 h): 72.8%; MCH (3 h): 21.7 pg; MCHC (3 h): 36.1%; MCV (3 h): 60.2 fL; Mono (3 h): 3%; Neu (3 h): 21.6%; PT (3 h): 11.9 s; Plat (3 h): 113.7 x10_4/uL; RBC (3 h): 623.8 x10_4/ul; Ret (3 h): 7.9%; WBC (3 h): 110.8 x10_2/uL; KIDNEY_L (3 h): 1.1 g; KIDNEY_R (3 h): 1 g; KIDNEY_TOTAL (3 h): 2.1 g; LIVER (3 h): 10.2 g; A/G (3 h): 1.6; ALP (3 h): 939.8 IU/L; ALT (3 h): 38.4 IU/L; AST (3 h): 73.4 IU/L; BUN (3 h): 10.8 mg/dL; CRE (3 h): 0.4 mg/dL; Ca (3 h): 10.6 mg/dL; Cl (3 h): 103.4 meq/L; DBIL (3 h): 0.068 mg/dL; GLC (3 h): 203.2 mg/dL; IP (3 h): 9.4 mg/dL; K (3 h): 4.2 meq/L; LDH (3 h): 162.6 IU/L; Na (3 h): 141.6 meq/L; PL (3 h): 140.4 mg/dL; RALB (3 h): 3.3 g/dL; TBIL (3 h): 0.1 mg/dL; TC (3 h): 78 mg/dL; TG (3 h): 55 mg/dL; TP (3 h): 5.3 g/dL; gamma-GTP (3 h): 0.8 IU/L; TERMINAL_BW (6 h): 218.3 g; APTT (6 h): 19 s; Bas (6 h): 0.2%; Eos (6 h): 1%; Fbg (6 h): 227.8 mg/dL; Hb (6 h): 14 g/dL; Ht (6 h): 39.1%; Lym (6 h): 73.6%; MCH (6 h): 21.4 pg; MCHC (6 h): 35.9%; MCV (6 h): 59.5 fL; Mono (6 h): 3.2%; Neu (6 h): 21.4%; PT (6 h): 12.2 s; Plat (6 h): 119.4 x10_4/uL; RBC (6 h): 656.8 x10_4/ul; Ret (6 h): 8.1%; WBC (6 h): 105 x10_2/uL; KIDNEY_L (6 h): 1 g; KIDNEY_R (6 h): 1 g; KIDNEY_TOTAL (6 h): 2 g; LIVER (6 h): 9.6 g; A/G (6 h): 1.6; ALP (6 h): 907.4 IU/L; ALT (6 h): 34.4 IU/L; AST (6 h): 70.2 IU/L; BUN (6 h): 9.8 mg/dL; CRE (6 h): 0.4 mg/dL; Ca (6 h): 10.8 mg/dL; Cl (6 h): 103.8 meq/L; DBIL (6 h): 0.074 mg/dL; GLC (6 h): 193.2 mg/dL; IP (6 h): 9.3 mg/dL; K (6 h): 4 meq/L; LDH (6 h): 167.6 IU/L; Na (6 h): 142 meq/L; PL (6 h): 135.6 mg/dL; RALB (6 h): 3.3 g/dL; TBIL (6 h): 0.1 mg/dL; TC (6 h): 73.8 mg/dL; TG (6 h): 65.4 mg/dL; TP (6 h): 5.4 g/dL; gamma-GTP (6 h): 1 IU/L; TERMINAL_BW (9 h): 217.1 g; APTT (9 h): 19 s; Bas (9 h): 0.4%; Eos (9 h): 1.2%; Fbg (9 h): 223.8 mg/dL; Hb (9 h): 13.6 g/dL; Ht (9 h): 37.9%; Lym (9 h): 77%; MCH (9 h): 21.5 pg; MCHC (9 h): 36%; MCV (9 h): 59.8 fL; Mono (9 h): 2.8%; Neu (9 h): 18%; PT (9 h): 12.3 s; Plat (9 h): 127.9 x10_4/uL; RBC (9 h): 634.2 x10_4/ul; Ret (9 h): 7.7%; WBC (9 h): 93.6 x10_2/uL; KIDNEY_L (9 h): 1 g; KIDNEY_R (9 h): 1 g; KIDNEY_TOTAL (9 h): 2 g; LIVER (9 h): 9 g; A/G (9 h): 1.6; ALP (9 h): 763.4 IU/L; ALT (9 h): 31.4 IU/L; AST (9 h): 63.6 IU/L; BUN (9 h): 9.4 mg/dL; CRE (9 h): 0.3 mg/dL; Ca (9 h): 10.6 mg/dL; Cl (9 h): 103.8 meq/L; DBIL (9 h): 0.062 mg/dL; GLC (9 h): 202 mg/dL; IP (9 h): 10.4 mg/dL; K (9 h): 3.9 meq/L; LDH (9 h): 122.2 IU/L; Na (9 h): 142.2 meq/L; PL (9 h): 129.8 mg/dL; RALB (9 h): 3.4 g/dL; TBIL (9 h): 0.1 mg/dL; TC (9 h): 70.6 mg/dL; TG (9 h): 35.4 mg/dL; TP (9 h): 5.4 g/dL; gamma-GTP (9 h): 1.2 IU/L; TERMINAL_BW (24 h): 234.1 g; APTT (24 h): 20.3 s; Bas (24 h): 0.6%; Eos (24 h): 1%; Fbg (24 h): 221.2 mg/dL; Hb (24 h): 13.4 g/dL; Ht (24 h): 37.5%; Lym (24 h): 77.6%; MCH (24 h): 21 pg; MCHC (24 h): 35.7%; MCV (24 h): 58.9 fL; Mono (24 h): 2.4%; Neu (24 h): 18%; PT (24 h): 11.7 s; Plat (24 h): 132.6 x10_4/uL; RBC (24 h): 637.2 x10_4/ul; Ret (24 h): 7.4%; WBC (24 h): 98.6 x10_2/uL; KIDNEY_L (24 h): 1.1 g; KIDNEY_R (24 h): 1.1 g; KIDNEY_TOTAL (24 h): 2.2 g; LIVER (24 h): 11.3 g; A/G (24 h): 1.6; ALP (24 h): 911.2 IU/L; ALT (24 h): 35.8 IU/L; AST (24 h): 70 IU/L; BUN (24 h): 16.2 mg/dL; CRE (24 h): 0.4 mg/dL; Ca (24 h): 10.8 mg/dL; Cl (24 h): 103.2 meq/L; DBIL (24 h): 0.062 mg/dL; GLC (24 h): 188.4 mg/dL; IP (24 h): 7.6 mg/dL; K (24 h): 4 meq/L; LDH (24 h): 171.8 IU/L; Na (24 h): 142 meq/L; PL (24 h): 143 mg/dL; RALB (24 h): 3.4 g/dL; TBIL (24 h): 0.1 mg/dL; TC (24 h): 72.2 mg/dL; TG (24 h): 77.4 mg/dL; TP (24 h): 5.6 g/dL; gamma-GTP (24 h): 1.4 IU/L
